According to patent US10383861B2, “3-(1H-pyrrolo[2,3-C]pyridin-2-yl)-1H-pyrazolo[3,4-C]pyridines and therapeutic uses thereof” (Samumed, LLC, priority 2015, dated 2019):

Tests used:
Type in all cases: cell-based
[1] = test system: primary human fibroblasts derived from IPF patients (LL29 cells); assay: Inhibition of the fibrotic process: αSMA staining in TGF-β1 treated LL29 fibroblasts; conditions: Fibroblast; for EC50: 96 h, LL29 cells, TGF-β1 20 ng/mL, 4 days, % αSMA positive cells; for inhibition at 10 µM: read-out: percent inhibition at 10 μM
Method: Representative compounds were screened using primary human fibroblasts (derived from IPF patients) treated with TGF-β1 to determine their ability to inhibit the fibrotic process.
LL29 cells are plated at 1,500 cells/well in 80 μL/well F12 medium supplemented with 1% Fetal Bovine Serum. […] Wells treated with TGF-β1 and containing DMSO were used as controls. […] Following incubation for 4 days, SYTOX green nucleic acid stain (Life Technologies [Thermo Fisher Scientific]) was added to the wells at a final concentration of 1 μM and incubated at room temperature for 30 min.

IL-6 = IL-6 inhibition in LPS-stimulated THP-1 cells (HTRF); conditions: Homo sapiens; for inhibition at 10 µM: THP-1, read-out: percent inhibition at 10 μM; for EC50: THP-1 cells, LPS 500 ng/mL, 22 hours, IL6 HTRF
Method: THP-1 cells were cultured in basal media with 1% FBS for 24 hours before the start of the assay. […] THP-1 cells were plated at 5000 cells/well in the 384-well plates and incubated at 37° C. for 2 h. 500 ng/mL of LPS was added after 2 hours and cells were incubated for another 22 hours at 37° C. Plates were spun in a centrifuge for 1 minute at […] and a mixture of anti-IL6 XL665, and anti-IL6 Cryptate diluted in reconstitution buffer (Cisbio Inc.) was added to each well. Following incubation for 3 hrs at room temperature, Homogeneous Time-Resolved Fluorescence (HTRF) was measured using the Envision (Perkin Elmer) at 665 nm and […]. The ratio of fluorescence at 665 nm to 620 nm was used as a readout for IL6 quantification. All samples were processed in duplicate. Readings were normalized to DMSO treated cells and normalized activities were utilized for EC50 calculations using the dose-response log (inhibitor) vs. response -variable slope (four parameters) nonlinear regression feature available in GraphPad Prism 5.0 (or Dotmatics).

Wnt activity = Wnt activity screening assay, Sp5-Luc reporter gene in SW480 cells; conditions: Homo sapiens; for EC50: Sp5-Luc reporter, SW480 cells, overnight incubation; for inhibition at 10 µM: SW480, read-out: percent inhibition at 10 μM
From the text: The screening assay for Wnt activity is described as follows. Reporter cell lines can be generated by stably transducing cancer cell lines (e.g., colon cancer) or primary cells (e.g., IEC-6 intestinal cells) with a lentiviral construct that includes a Wnt-responsive promoter driving expression of the firefly luciferase gene.
SW480 colon carcinoma cells were transduced with a lentiviral vector expressing luciferase with a human Sp5 promoter consisting of a sequence of eight TCF/LEF binding sites. SW480 cells stably expressing the Sp5-Luc reporter gene and a hygromycin resistance gene were selected by treatment with 150 μg/mL of hygromycin for 7 days. These stably transduced SW480 cells were expanded in cell culture and used for all further screening activities. […] For Sp5-Luc reporter gene assays, the cells were plated at 4,000 cells/well in 384-well plates with medium containing 1% fetal bovine serum and incubated overnight at 37° C. and 5% CO2. Following incubation, 20 μl of BrightGlo luminescence reagent (Promega) was added to each well of the 384-well assay plates. The plates were placed on an orbital shaker for 2 min and then luminescence was quantified using the Envision (Perkin Elmer) plate reader. Readings were normalized to DMSO only treated cells, and normalized activities were utilized for EC50 calculations using the dose-response log (inhibitor) vs. response -variable slope (four parameters) nonlinear regression feature available in GraphPad Prism 5.0 (or Dotmatics).

SW480 colon cancer cells = assay: Cell viability assay (CellTiter-Blue) in SW480 colon cancer cells; conditions: Homo sapiens; for EC50: 96 h, SW480 cell viability, four days, CellTiter-Blue; for inhibition at 10 µM: SW480, read-out: percent inhibition at 10 μM
Method: Representative compounds were screened using the following assay procedure to assess the effect on cell viability as described below.
Approximately 2×10^3 SW480 colon cancer cells were seeded into each well and allowed to incubate in the presence or absence of compound for four days at 37° C./5% CO2. Eight replicates of DMSO-treated cells served as controls and cells treated with compound were performed in duplicate.
After incubation, 20 μL of CellTiter-Blue (Promega) was added to each well allowed to incubate for approximately 3 hours. This reagent was a buffered solution which contains resazurin, metabolically active cells were able to reduce rezarurin (blue) into resorufin (pink) which was highly fluorescent. This measured fluorescence was used as a readout for cell viability.

| SMILES | EC50 (IL-6) [µM] | EC50 (Wnt activity) [µM] | EC50 (SW480 colon cancer cells) [µM] | EC50 [1] [µM] | inhibition at 10 µM (IL-6) [%] | inhibition at 10 µM (SW480 colon cancer cells) [%] | inhibition at 10 µM [1] [%] | inhibition at 10 µM (Wnt activity) [%] |
| --- | --- | --- | --- | --- | --- | --- | --- | --- |
| c1cc(-c2cc3c(-c4cc5c(N6CCCCC6)cncc5[nH]4)n[nH]c3cn2)ccn1 [Compound 186, 3-(4-(Piperidin-1-yl)-1H-pyrrolo[2,3-c]pyridin-2-yl)-5-(pyridin-4-yl)-1H-pyrazolo[3,4-c]pyridine] | > 10 | 5.51 | 3.95 | 4.87 | 20.1 |  |  |  |
| CN(C)c1cncc(-c2cc3c(-c4cc5ccncc5[nH]4)n[nH]c3cn2)c1 [Compound 259, 5-(3-(1H-Pyrrolo[2,3-c]pyridin-2-yl)-1H-pyrazolo[3,4-c]pyridin-5-yl)-N,N-dimethylpyridin-3-amine] | 3.58 | 2.86 | 0.82 | 0.606 |  |  |  |  |
| CN(C)Cc1cncc(-c2cc3c(-c4cc5ccncc5[nH]4)n[nH]c3cn2)c1 [Compound 265, 1-(5-(3-(1H-Pyrrolo[2,3-c]pyridin-2-yl)-1H-pyrazolo[3,4-c]pyridin-5-yl)pyridin-3-yl)-N,N-dimethylmethanamine] | 3.11 | 2.54 | 2.65 | 1.48 |  |  |  |  |
| O=C(Nc1cncc(-c2cc3c(-c4cc5ccncc5[nH]4)n[nH]c3cn2)c1)C1CC1 [Compound 272, N-(5-(3-(1H-Pyrrolo[2,3-c]pyridin-2-yl)-1H-pyrazolo[3,4-c]pyridin-5-yl)pyridin-3-yl)cyclopropanecarboxamide] | 3.14 | 0.977 | > 10 | 0.467 |  | 29.9 |  |  |
| c1cc2cc(-c3n[nH]c4cnc(-c5cncc(CNCC6CCCC6)c5)cc34)[nH]c2cn1 [Compound 277, 1-(5-(3-(1H-Pyrrolo[2,3-c]pyridin-2-yl)-1H-pyrazolo[3,4-c]pyridin-5-yl)pyridin-3-yl)-N-(cyclopentylmethyl)methanamine] | 3.58 | 3.48 | 3.96 | 1.81 |  |  |  |  |
| Cc1ccncc1-c1cc2c(-c3cc4c(-c5ccoc5)cncc4[nH]3)n[nH]c2cn1 [Compound 313, 3-(4-(Furan-3-yl)-1H-pyrrolo[2,3-c]pyridin-2-yl)-5-(4-methylpyridin-3-yl)-1H-pyrazolo[3,4-c]pyridine] | 4.27 | 1.59 | 1.74 | 0.599 |  |  |  |  |
| CC(C)C(=O)Nc1cncc(-c2cc3c(-c4cc5c(-c6ccoc6)cncc5[nH]4)n[nH]c3cn2)c1 [Compound 317, N-(5-(3-(4-(Furan-3-yl)-1H-pyrrolo[2,3-c]pyridin-2-yl)-1H-pyrazolo[3,4-c]pyridin-5-yl)pyridin-3-yl)isobutyramide] | 1 | 3.65 | > 10 | 4.88 |  | 0 |  |  |
| FC1(F)CCN(Cc2cncc(-c3cc4c(-c5cc6c(-c7cccs7)cncc6[nH]5)n[nH]c4cn3)c2)C1 [Compound 362, 5-(5-((3,3-Difluoropyrrolidin-1-yl)methyl)pyridin-3-yl)-3-(4-(thiophen-2-yl)-1H-pyrrolo[2,3-c]pyridin-2-yl)-1H-pyrazolo[3,4-c]pyridine] | 1.32 | 5.24 | 4.1 | 1.16 |  |  |  |  |
| CC(C)(C)CC(=O)Nc1cncc(-c2cc3c(-c4cc5c(-c6cc(F)cc(CNS(C)(=O)=O)c6)cncc5[nH]4)n[nH]c3cn2)c1 [Compound 492, N-(5-(3-(4-(3-Fluoro-5-(methylsulfonamidomethyl)phenyl)-1H-pyrrolo[2,3-c]pyridin-2-yl)-1H-pyrazolo[3,4-c]pyridin-5-yl)pyridin-3-yl)-3,3-dimethylbutanamide] | > 10 | > 10 | > 10 | > 10 | 29 | 16.3 | 0 | 14.6 |

Now from value to compound, other results behind:

| EC50 (IL-6) [µM] | EC50 (Wnt activity) [µM] | EC50 (SW480 colon cancer cells) [µM] | SMILES | EC50 [1] [µM] | inhibition at 10 µM (IL-6) [%] | inhibition at 10 µM (SW480 colon cancer cells) [%] | inhibition at 10 µM [1] [%] | inhibition at 10 µM (Wnt activity) [%] |
| --- | --- | --- | --- | --- | --- | --- | --- | --- |
| > 10 | > 10 | > 10 | CS(=O)(=O)NCc1cc(F)cc(-c2cncc3[nH]c(-c4n[nH]c5cnc(-c6cncc(NC(=O)C7CCCCC7)c6)cc45)cc23)c1 [Compound 499, N-(5-(3-(4-(3-Fluoro-5-(methylsulfonamidomethyl)phenyl)-1H-pyrrolo[2,3-c]pyridin-2-yl)-1H-pyrazolo[3,4-c]pyridin-5-yl)pyridin-3-yl)cyclohexanecarboxamide] | > 10 | 36.6 | 15.5 | 0 | 11.3 |
| 0.943 | 2.38 | 2.98 | CS(=O)(=O)NCc1cc(F)cc(-c2cncc3[nH]c(-c4n[nH]c5cnc(-c6ccccn6)cc45)cc23)c1 [Compound 504, N-(3-Fluoro-5-(2-(5-(pyridin-2-yl)-1H-pyrazolo[3,4-c]pyridin-3-yl)-1H-pyrrolo[2,3-c]pyridin-4-yl)benzyl)methanesulfonamide] | 2.01 |  |  |  |  |
| > 10 | > 10 | > 10 | Fc1ccccc1-c1cncc2[nH]c(-c3n[nH]c4cnc(-c5cn[nH]c5)cc34)cc12 [Compound 539, 3-(4-(2-Fluorophenyl)-1H-pyrrolo[2,3-c]pyridin-2-yl)-5-(1H-pyrazol-4-yl)-1H-pyrazolo[3,4-c]pyridine] | 2.43 | 0 | 3.6 |  | 8.6 |
| > 10 | > 10 | > 10 | c1cncc(-c2cncc3[nH]c(-c4n[nH]c5cnc(C6CCNCC6)cc45)cc23)c1 [Compound 553, 5-(Piperidin-4-yl)-3-(4-(pyridin-3-yl)-1H-pyrrolo[2,3-c]pyridin-2-yl)-1H-pyrazolo[3,4-c]pyridine] | 1.19 | 18.1 | 11 |  | 8.3 |
| 3.17 | 1.34 | 1.3 | c1ncc(-c2cc3c(-c4cc5c(N6CCCCC6)cncc5[nH]4)n[nH]c3cn2)cc1OC1CCCCC1 [Compound 607, 5-(5-(Cyclohexyloxy)pyridin-3-yl)-3-(4-(piperidin-1-yl)-1H-pyrrolo[2,3-c]pyridin-2-yl)-1H-pyrazolo[3,4-c]pyridine] | 0.532 |  |  |  |  |
| > 10 | > 10 | > 10 | CN(C)CCOc1cncc(-c2cc3c(-c4cc5c(-c6cccs6)cncc5[nH]4)n[nH]c3cn2)c1 [Compound 707, N,N-Dimethyl-2-((5-(3-(4-(thiophen-2-yl)-1H-pyrrolo[2,3-c]pyridin-2-yl)-1H-pyrazolo[3,4-c]pyridin-5-yl)pyridin-3-yl)oxy)ethan-1-amine] | 5.1 | 41.3 | 0 |  | 5 |
| > 10 | 1.03 | > 10 | Cn1cc(-c2cc3c(-c4cc5c(-c6cc(F)cc(CNS(C)(=O)=O)c6)cncc5[nH]4)n[nH]c3cn2)cn1 [Compound 764, N-(3-Fluoro-5-(2-(5-(1-methyl-1H-pyrazol-4-yl)-1H-pyrazolo[3,4-c]pyridin-3-yl)-1H-pyrrolo[2,3-c]pyridin-4-yl)benzyl)methanesulfonamide] | 2.42 | 20 | 9.3 |  |  |
